Laboratory results from patent US20260092086A1, “ANTIMICROBIAL LASSO PEPTIDES” (priority 2022, published 2026).
Converted amounts (≈) assume the structure as drawn. “And” between values parts separate entries of the source, which are not always exact repeats. Equal entries are not always repeated. “Also recorded” adds a separate entry of the source. Where two headings read alike, the source gives them in different places. Where a SMILES comes first, the peptide text is derived from it.

Experiments:
[1] = test system: clinical isolates of Enterobacter; assay: Spot-on-lawn assay, panel of clinical isolates (Table 7); type: cell-based
Protocol: The type strain of Enterobacter cloacae (ATCC 13047) tested as discussed above was isolated from human cerebrospinal fluid in 1890^66 before the era of antibiotics. The activity of cloacaenodin was also tested against more recent clinical isolates. A panel of two (2) clinical isolates of Enterobacter using the spot-on-lawn assay was tested (Table 7).
Cloacaenodin was evaluated against several common laboratory strains as well as commercially acquired strains using a spot-on-lawn assay.^45 Strains were streaked out onto LB agar plates and incubated overnight at their recommended temperatures. A single colony was then used to inoculate an overnight culture in 5 mL of LB broth. After shaking at 250 rpm at the recommended temperature for each strain, 50 μL of the overnight culture was used to inoculate 5 mL of LB broth (volume ratio 1:100). These cultures were grown for a few hours until they reached the exponential phase (OD600˜0.4-0.6) before being added to 10 mL of soft M63 agar at a final cell density of 10^7 CFUs/mL, or 10^8 CFUs total in 10 mL. […] The plates were incubated overnight at the strains' recommended temperatures and analyzed the next morning for activity. […]

B. subtilis 168 = assay: Spot-on-lawn assay in M63 agar; type: cell-based, Bacillus subtilis; details: purified cloacaenodin in water
Protocol: (§1) Cloacaenodin was evaluated against several common laboratory strains as well as commercially acquired strains using a spot-on-lawn assay.^45 Strains were streaked out onto LB agar plates and incubated overnight at their recommended temperatures. A single colony was then used to inoculate an overnight culture in 5 mL of LB broth. After shaking at 250 rpm at the recommended temperature for each strain, 50 μL of the overnight culture was used to inoculate 5 mL of LB broth (volume ratio 1:100). These cultures were grown for a few hours until they reached the exponential phase (OD600˜0.4-0.6) before being added to 10 mL of soft M63 agar at a final cell density of 10^7 CFUs/mL, or 10^8 CFUs total in 10 mL. The M63 soft agar was composed of 2 g/L of (NH4)2SO4 (EMD MilliporeSigma), 13.6 g/L of KH2PO4 (Fisher), 40 mg/L of each of the 20 common amino acids, 0.2% glucose (Sigma), 0.00005% w/v thiamine hydrochloride (Sigma), and 0.65% w/v bacteriological-grade agar (Apex Bioresearch). […] Upon solidification, 10 μL of purified cloacaenodin in water at two-fold dilutions were then spotted onto the agar and allowed to dry. The plates were incubated overnight at the strains' recommended temperatures and analyzed the next morning for activity. The MIC is defined as the last dilution where a spot was visible.

[2] = 18 μM in pure water, 37° C., 72 hours (3 days)
Protocol: A 200 μL sample of purified ˜18 μM cloacaenodin in water was incubated at 37° C. for 72 hours. 30 μL of the sample was injected on LC-MS at 24-hour increments.

Kluyvera strain = assay: Spot-on-lawn assay, CDC & FDA Antibiotic Resistance Isolate Bank panels; type: cell-based; details: carbapenem-resistant CRE/BIT panel strain, M63 agar
Source text: (§2) FIG. 42. Spot-on-lawn assays of tested clinical isolates treated with cloacaenodin in M63 agar. From the initial concentration shown to the left of the curved arrow and in the direction of the curved arrow, two-fold serial dilutions of cloacaenodin were spotted. The straight arrows point to the last visible spot on the plate which corresponds to the recorded minimal inhibitory concentration (MIC). Spot 8 is pure water in all plates. AR Bank #0132, AR Bank #0136, AR Bank #0144, and AR Bank #0154 are from the CRE panel. AR Bank #0001 and AR Bank #0002 are from the BIT panel.
(§3) Two panels from the CDC & FDA Antibiotic Resistance Isolate Bank were used: the Enterobacterales Carbapenemase Diversity (CRE) panel and the Enterobacterales Carbapenem Breakpoint (BIT) panel.^81 These panels represent strains with resistance to carbapenems, which are last resort antibiotics: there is an urgent need of new treatments of infections with these strains.
(§4) We tested 6 strains: 4 Enterobacter strains, 1 Kluyvera strain, and 1 Escherichia coli strain.

Enterobacter strains = assay: as above; type: cell-based; details: three of the four Enterobacter strains of the CRE/BIT panels, M63 agar
Source text: as §2, §3, §4

[3] = test system: Escherichia coli XL-1 Blue; assay: Intracellular toxicity: IPTG-induced expression from plasmid lacking cloD; type: cell-based; details: IPTG induction
Protocol: After characterizing the structure and proteolytic resistance of cloacaenodin, cloacaenodin's inhibition of bacterial growth was tested. As a preliminary test of antimicrobial activity, a version of the expression plasmid from which the cloD gene was removed was cloned, so that the lasso peptide could not be exported by the Escherichia coli upon isopropyl β-D-1-thiogalactopyranoside (IPTG)-induced expression.
Cloacaenodin variants were constructed using site-directed mutagenesis. Mutant precursor genes were amplified from the wild-type precursor in pAK2 using mutagenic primers. Following PCR amplification of the mutated precursor gene, the purified PCR product was digested and ligated into pAK2 with the EcoRI and HindIII restriction sites. For the pMP3 plasmid for deletion of the cloD gene, the D gene was first disrupted by digestion of pAK2 with BamHI and NcoI, which removed the entire cloD gene and the C-terminal portion of the cloC gene. The digested plasmid was then ligated with an insert that restored the C-terminal portion of the cloC gene. All mutants were sequence confirmed by Genewiz (now Azenta) before use.

[4] = test system: Enterobacter ludwigii MGH216; assay: Spot-on-lawn assay in M63 agar, clinical isolate; type: cell-based; details: reliably susceptible in at least three biological replicates
Protocol: as §1, with “visible. […]” for “visible.”

[5] = test system: Enterobacter cloacae ATCC 13047; type: cell-based
Protocol: (§5) For liquid inhibition assays, 5 mL LB broth was inoculated with 40-50 μL of an overnight culture of E. cloacae or E. amnigenus. […] The plate was shaken at 30° C. at 250 rpm for E. cloacae, and 37° C. at 250 rpm for E. amnigenus. The OD600 was measured at 8-hour and 16-hour increments. The MIC is defined as the lowest concentration of cloacaenodin for which growth (as assessed by the OD600) was inhibited.

Enterobacter amnigenus = type: cell-based
Protocol: as §5

[6] = test system: Enterobacter hormaechei UCI35; type: cell-based
Protocol: as §1
(§6) Twelve (12) clinical isolates were tested at the Broad Institute of MIT and Harvard, with a subset of strains from BioProject PRJNA292902, BioProject PRJNA271899, BioProject PRJNA201976, and BioProject 219285. The strains were tested following the same spot-on-lawn assay protocol described above, but with BD Bacto Agar used instead. All cloacaenodin-treated isolates were incubated at 37° C. overnight, and the assay was repeated at least three times (on biological replicates) for each of the twelve (12) strains. We defined a strain to be susceptible if it was reliably susceptible in at least three biological replicates.

[7] = test system: Enterobacter asburiae UCI193; type: cell-based
Protocol: as §1, §6

[8] = test system: Enterobacter kobei MGH178; type: cell-based
Protocol: as §1, §6

[9] = test system: Enterobacter asburiae MGH243; type: cell-based
Protocol: as §1, §6

[10] = test system: Enterobacter cloacae UCI102; type: cell-based
Protocol: as §1, §6

With `CC[C@H](C)[C@@H]1NC(=O)[C@H](CCCNC(=N)N)NC(=O)[C@H](CC(=O)O)NC(=O)[C@H](C(C)C)NC(=O)[C@H](CO)NC(=O)[C@H](Cc2c[nH]cn2)NC(=O)CNC(=O)CC[C@@H](C(=O)N[C@@H](Cc2ccc(O)cc2)C(=O)N[C@@H](Cc2ccccc2)C(=O)NCC(=O)N2CCC[C@H]2C(=O)N2CCC[C@H]2C(=O)NCC(=O)N[C@@H](CC(C)C)C(=O)N2CCC[C@H]2C(=O)NCC(=O)N2CCC[C@H]2C(=O)N[C@H](C(=O)N[C@@H](CC(C)C)C(=O)N[C@@H](Cc2ccccc2)C(=O)N[C@@H](Cc2ccc(O)cc2)C(=O)N[C@@H](CO)C(=O)O)C(C)C)NC(=O)[C@@H]2CCCN2C1=O` [cloacaenodin] (HELM PEPTIDE1{G.H.S.V.D.R.I.P.E.Y.F.G.P.P.G.L.P.G.P.V.L.F.Y.S}$PEPTIDE1,PEPTIDE1,1:R1-9:R3$$$V2.0; C-terminus assumed) the “minimal inhibitory concentration (MIC)” value ([1]; six of the clinical isolates, three classified as carbapenem resistant) was “low micromolar”, the antimicrobial activity ([1]; the other clinical isolates of Table 7) was “either weak or no activity” and the “antimicrobial activity (zones of inhibition)” value (B. subtilis 168) was “no observed activity”. The “fraction remaining threaded (relative peak area on LC-MS)” value [2] was ~83% and > 80%, the antimicrobial activity (Kluyvera strain) was “single digit micromolar” and the antimicrobial activity (Enterobacter strains) was “single digit micromolar”. The “intracellular toxicity (growth of E. coli on IPTG without CloD)” value [3] was “colonies did not appear; also recorded: can no longer grow”, the “strain susceptible to cloacaenodin” value [4] was “* MGH216” and the “MIC in M63 media” value ([5]; ATCC 13047) was 0.94 µM (≈ 2.43 µg/mL). For the same compound, the “MIC in M63 media” value ([5]; liquid, Enterobacter cloacae ATCC 13047) was 0.94 µM (liquid) (≈ 2.43 µg/mL), the “MIC, broth microdilution assay in M63 media” value (Enterobacter amnigenus) was 0.23 µM (≈ 0.594 µg/mL) and the “MIC in M63 media” value [6] was 1 µM (≈ 2.58 µg/mL). The “MIC in M63 media” value [7] was 2 µM (≈ 5.17 µg/mL), the “strain susceptible to cloacaenodin” value ([7]; clinical strain UCI193, reliably susceptible in at least three biological replicates) was “* UCI193” and the “MIC in M63 media” value [8] was 1 µM (≈ 2.58 µg/mL). The “MIC in M63 media” value [9] was 2 µM (≈ 5.17 µg/mL) and the “MIC in M63 media” value [10] was 0.5 µM (≈ 1.29 µg/mL).
